The record followed here is ChEMBL document CHEMBL1135276, “Novel estimation of lipophilic behaviour of polychlorinated biphenyls” (Bioorg Med Chem Lett, 2002).

The series in a line: Partition coefficient (logP). As to conditions: octanol/water.
With `Clc1cc(Cl)c(-c2cc(Cl)c(Cl)cc2Cl)cc1Cl` [2,2',4,4',5,5'-HEXACHLOROBIPHENYL], the logP is 6.8. As for `Clc1cc(Cl)c(Cl)c(-c2c(Cl)c(Cl)cc(Cl)c2Cl)c1Cl`, the figure is 7.15. The result for `Clc1cc(-c2cc(Cl)c(Cl)c(Cl)c2)cc(Cl)c1Cl` reads 7.55; that for `Clc1c(Cl)c(Cl)c(-c2ccccc2)c(Cl)c1Cl`, 6.52; that for `Clc1ccccc1-c1ccccc1Cl`, 4.73. Regarding `Clc1ccc(-c2ccc(Cl)cc2)cc1`, the logP was determined as 5.58. As for `Clc1ccc(Cl)c(-c2ccccc2Cl)c1`, the figure is 5.6; as for `Clc1ccc(-c2c(Cl)cc(Cl)c(Cl)c2Cl)c(Cl)c1Cl`, 6.99; as for `Clc1ccc(Cl)c(-c2cc(Cl)c(Cl)cc2Cl)c1`, 6.49.

Usually logP stands for a log measure of how a compound divides between an organic and an aqueous phase. Read a low logP as a more hydrophilic compound.
